According to publication PMC4390550 (Journal of the American Chemical Society, 2015):
Counter-ions that a name gives are not always drawn.

Assays:
GABA-AT [1] = details: aromatization mechanism; cited from earlier work
[2] = system: aspartate aminotransferase; details: cited from earlier work
alanine aminotransferase = details: cited from earlier work
infantile spasms = details: cited from earlier work
GABA-AT [3] = target: T1, GABA-AT (Sus scrofa, UniProt P80147); assay: Time-dependent inhibition; type: biochemical, pig; details: preliminary in vitro results
T1 sequence (P80147 29-500): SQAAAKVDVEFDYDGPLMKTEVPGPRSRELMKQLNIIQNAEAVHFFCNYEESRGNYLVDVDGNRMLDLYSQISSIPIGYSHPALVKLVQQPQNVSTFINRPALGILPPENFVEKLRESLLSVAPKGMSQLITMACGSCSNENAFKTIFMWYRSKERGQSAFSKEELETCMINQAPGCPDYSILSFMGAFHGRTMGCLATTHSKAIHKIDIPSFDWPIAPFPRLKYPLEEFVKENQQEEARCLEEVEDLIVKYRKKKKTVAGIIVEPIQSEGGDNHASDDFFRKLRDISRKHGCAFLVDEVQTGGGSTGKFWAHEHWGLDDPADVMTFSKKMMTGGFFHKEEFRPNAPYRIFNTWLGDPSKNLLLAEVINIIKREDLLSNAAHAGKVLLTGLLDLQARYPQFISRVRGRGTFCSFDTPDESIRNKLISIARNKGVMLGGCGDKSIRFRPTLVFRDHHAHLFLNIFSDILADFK

GABA-AT [4] = target: T1, GABA-AT; assay: Inhibition of GABA-AT, coupled assay with SSDH, Ki by Cheng-Prusoff; type: biochemical, pig

In the case of `N[C@H]1C=C(C(=O)O)SC1` [(S)-4-Amino-4,5-dihydro-2-thiophenecarboxylic acid], the “inactivation of GABA-AT (in words)” value (GABA-AT [1]) is listed as “known inactivator” and the “inactivation of aspartate aminotransferase (in words)” value [2] is listed as “inactivator”.
For `N[C@H]1C[C@@H](C(=O)O)CC1=C(F)F` [Compound 16], the “inactivation or inhibition of alanine aminotransferase” value (alanine aminotransferase) is listed as “did not inactivate or inhibit”, the margin of safety (infantile spasms; compared with vigabatrin) is listed as “much larger margin of safety than vigabatrin” and the “doses that suppressed spasms” value (infantile spasms; rat) is listed as 0.1 to 1 mg/kg/day. The “effective doses lower than those for vigabatrin” value (infantile spasms; rat) was greater than 100 fold, the “time spasms suppression stayed effective” value (infantile spasms; rat) was 3 days and the “inactivation or inhibition of aspartate aminotransferase” value [2] was “did not inactivate or inhibit”.
With `Cl.N[C@@H]1CS[C@H](C(=O)O)C1` [Compound 17, (2S,4S)-4-Aminotetrahydrothiophene-2-carboxylic acid hydrochloride] the “inactivation of GABA-AT (in words)” value (GABA-AT [3]) was “potent inactivators”.
For `Cl.N[C@@H]1CS[C@@H](C(=O)O)C1` [Compound 18, (2R,4S)-4-Aminotetrahydrothiophene-2-carboxylic acid hydrochloride], the “inactivation of GABA-AT (in words)” value (GABA-AT [3]) was “potent inactivators”.
`N[C@H]1CC(C(=O)O)S(=O)(=O)C1` (stereo partly drawn) [Compound 19, (4S)-4-Aminotetrahydrothiophene-2-carboxylic acid 1,1-dioxide hydrochloride] showed a Ki (GABA-AT [4]; reversible inhibition, pH 8.5, 25 °C, 10 mM GABA) of 3.2 ± 0.7 mM.
With `N[C@@H]1CC[C@H](C(=O)O)C1` [Compound 39, (1S,3R)-3-aminocyclopentane-1-carboxylic acid] the “inactivation of GABA-AT (in words)” value (GABA-AT [3]) was “not an inactivator” and the “reversible inhibition of GABA-AT (in words)” value (GABA-AT [4]; preliminary in vitro results) was “good competitive inhibitor”.
In the case of `C=CC(N)CCC(=O)O` (centres unmarked) [vigabatrin], the “time spasms suppression stayed effective” value (infantile spasms; rat) is listed as 1 days.
